Converted amounts (≈) assume the structure as drawn. Like-named read-outs stand apart in the source and are kept apart here.
How the values were obtained:
P. cepacia GIFU 518 = assay: MIC, in vitro antibacterial activity (standard strains); assay type: cell-based; conditions: Burkholderia cepacia, GIFU518
[1] = system: Pseudomonas aeruginosa V-1; assay: as above; assay type: cell-based; conditions: Pseudomonas aeruginosa, V1; 10^6 cells/ml; Gram -; read-out: MIC
[2] = system: Yersinia enterocolitica IID 981; assay: as above; assay type: cell-based; conditions: Yersinia enterocolitica, IID981; 10^6 cells/ml; Gram -; read-out: MIC
P. aeruginosa IID 1210 = assay: as above; assay type: cell-based, Pseudomonas aeruginosa; conditions: Pseudomonas aeruginosa, IID1210; 10^6 cells/ml; Gram -; read-out: MIC
S. aureus Smith = assay: as above; assay type: cell-based, Staphylococcus aureus; conditions: Staphylococcus aureus; 10^6 cells/ml; Gram +; read-out: MIC
P. aeruginosa IFO 12689 = assay: as above; assay type: cell-based, Pseudomonas aeruginosa; conditions: Pseudomonas aeruginosa, IFO12689; 10^6 cells/ml; Gram -; read-out: MIC
[3] = system: Veillonella parvula KYA 10790; assay: as above; assay type: cell-based; conditions: Veillonella parvula, KYA10790; 10^6 cells/ml; Gram -; read-out: MIC
Shigella sonnei IID 969 = assay: as above; assay type: cell-based; conditions: Shigella sonnei, IID969; 10^6 cells/ml; Gram -; read-out: MIC
Method: Minimal inhibitory concentrations (MICs) were determined in accordance with the method recommended by Japan Society of Chemotherapy.

[4] = system: S. aureus IID 670 (Terajima); assay: as above; assay type: cell-based, Staphylococcus aureus; conditions: Staphylococcus aureus, IID670; 10^6 cells/ml; Gram +; read-out: MIC
[5] = system: Klebsiella pneumoniae KY(GN)6445; assay: as above; assay type: cell-based; conditions: Klebsiella pneumoniae; 10^6 cells/ml; Gram -; read-out: MIC
[6] = system: Citrobacter freundii IID 976; assay: as above; assay type: cell-based; conditions: Citrobacter freundii, IID976; 10^6 cells/ml; Gram -; read-out: MIC
[7] = system: Eubacterium lentum GAI 5242; assay: as above; assay type: cell-based; conditions: Eggerthella lenta, GAI5242; 10^6 cells/ml; Gram +; read-out: MIC
[8] = system: Acinetobacter anitratus IID 876; assay: as above; assay type: cell-based; conditions: Acinetobacter calcoaceticus, IID876; 10^6 cells/ml; Gram -; read-out: MIC
[9] = system: Salmonella enteritidis IID 604; assay: as above; assay type: cell-based; conditions: Salmonella enterica; 10^6 cells/ml; Gram -; read-out: MIC
[10] = system: Enterobacter cloacae IID 977; assay: as above; assay type: cell-based; conditions: Enterobacter cloacae, IID977; 10^6 cells/ml; Gram -; read-out: MIC
B. fragilis 25285 = assay: as above; assay type: cell-based, Bacteroides fragilis; conditions: Bacteroides fragilis, 25285; 10^6 cells/ml; Gram -; read-out: MIC
P. maltophilia GIFU 2491 = assay: as above; assay type: cell-based; conditions: Stenotrophomonas maltophilia, GIFU2491; 10^6 cells/ml; Gram -; read-out: MIC
[11] = system: Staphylococcus aureus 209 P; assay: as above; assay type: cell-based; conditions: Staphylococcus aureus, 209P; 10^6 cells/ml; Gram +; read-out: MIC
[12] = system: Bacteroides fragilis GM 7000; assay: as above; assay type: cell-based; conditions: Bacteroides fragilis, GM7000; 10^6 cells/ml; Gram -; read-out: MIC
K. pneumoniae 1-220S = assay: as above; assay type: cell-based, Klebsiella pneumoniae; conditions: Klebsiella pneumoniae, 1220S; 10^6 cells/ml; Gram -; read-out: MIC
[13] = system: Propionibacterium acens 11828; assay: as above; assay type: cell-based; conditions: Propionibacterium, 11828; 10^6 cells/ml; Gram +; read-out: MIC
[14] = system: Escherichia coli NIHJ JC-2; assay: as above; assay type: cell-based; conditions: Escherichia coli, NIHJJC2
[15] = system: Morganella morganii IID 602; assay: as above; assay type: cell-based; conditions: Morganella morganii, IID602; 10^6 cells/ml; Gram -; read-out: MIC
[16] = system: Alcaligenes faecalis 0114002; assay: as above; assay type: cell-based; conditions: Alcaligenes faecalis, 0114002; 10^6 cells/ml; Gram -; read-out: MIC
[17] = system: Peptostreptococcus anaerobius KYA 27337; assay: as above; assay type: cell-based; conditions: Peptostreptococcus anaerobius, KYA27337; 10^6 cells/ml; Gram +; read-out: MIC
[18] = system: B. thetaiotaomicron (0661); assay: as above; assay type: cell-based; conditions: Bacteroides thetaiotaomicron; 10^6 cells/ml; Gram -; read-out: MIC
C. perfringens KYA 13123 = assay: microbe, parasite or virus in culture; assay type: cell-based; conditions: Clostridium perfringens, KYA13123
[19] = system: Fusobacterium mortiferum 4249; assay: MIC, in vitro antibacterial activity (standard strains); assay type: cell-based; conditions: Fusobacterium mortiferum, 4249; 10^6 cells/ml; Gram -; read-out: MIC
P. mirabilis IID 994 = assay: as above; assay type: cell-based; conditions: Proteus mirabilis, IID994; 10^6 cells/ml; Gram -; read-out: MIC
E. faecalis IID 682 = assay: as above; assay type: cell-based; conditions: Enterococcus faecalis, IID682; 10^6 cells/ml; Gram +; read-out: MIC
S. pyogenes IID 692 = assay: as above; assay type: cell-based, Streptococcus pyogenes; conditions: Streptococcus pyogenes, IID692; 10^6 cells/ml; Gram +; read-out: MIC
S. pneumoniae IID 552 = assay: as above; assay type: cell-based; conditions: Streptococcus pneumoniae, IID552; 10^6 cells/ml; Gram +; read-out: MIC
[20] = 10^6 cells/ml, Gram -, read-out: MIC

Structure (SMILES)	MIC [1] [µg/mL]	MIC [2] [µg/mL]	MIC (P. aeruginosa IID 1210) [µg/mL]	MIC (S. aureus Smith) [µg/mL]	MIC (P. aeruginosa IFO 12689) [µg/mL]	MIC [3] [µg/mL]	MIC (Shigella sonnei IID 969) [µg/mL]	MIC [4] [µg/mL]	MIC [5] [µg/mL]	MIC [6] [µg/mL]	MIC [7] [µg/mL]	MIC [8] [µg/mL]	MIC [9] [µg/mL]	MIC [10] [µg/mL]	MIC (B. fragilis 25285) [µg/mL]	MIC (P. maltophilia GIFU 2491) [µg/mL]	MIC [11] [µg/mL]	MIC [12] [µg/mL]	MIC (K. pneumoniae 1-220S) [µg/mL]	MIC [13] [µg/mL]	also measured
CC1CN(c2c(F)cc3c(=O)c(C(=O)O)cn(C4CC4)c3c2F)CC1N.Cl (centres unmarked) [Example 11, 7-(3-Amino-4-methyl-1-pyrrolidinyl)-1-cyclopropyl-6,8-difluoro-1,4-dihydro-4-oxo-3-quinolinecarboxylic acid hydrochloride]	0.39	0.05	0.39	0.05	0.39	0.39	0.025	0.1	0.025	0.05	0.39	0.05	0.05	0.05	0.39	0.1	0.05	0.78	0.05	3.13	MIC (P. cepacia GIFU 518; [20]): 0.39 µg/mL; MIC [14]: 0.0125 µg/mL; MIC [15]: 0.05 µg/mL; MIC [16]: 0.2 µg/mL; MIC [17]: 0.39 µg/mL; MIC [18]: 0.78 µg/mL; MIC (C. perfringens KYA 13123): 0.39 µg/mL; MIC [19]: 0.39 µg/mL; MIC (P. mirabilis IID 994): 0.05 µg/mL
C[C@H]1CN(c2cc3c(cc2F)c(=O)c(C(=O)O)cn3C2CC2)C[C@H]1N (relative stereo) [Example 33, 7-(cis-3-Amino-4-methyl-1-pyrrolidinyl)-1-cyclopropyl-6-fluoro-1,4-dihydro-4-oxo-3-quinolinecarboxylic acid]	0.2 (≈ 0.579 µM)	0.05 (≈ 0.145 µM)	1.56 (≈ 4.52 µM)	0.1 (≈ 0.29 µM)	0.39 (≈ 1.13 µM)	0.39 (≈ 1.13 µM)	0.05 (≈ 0.145 µM)	0.1 (≈ 0.29 µM)	0.05 (≈ 0.145 µM)	0.05 (≈ 0.145 µM)	0.78 (≈ 2.26 µM)	0.1 (≈ 0.29 µM)	0.05 (≈ 0.145 µM)	0.05 (≈ 0.145 µM)	1.56 (≈ 4.52 µM)	0.39 (≈ 1.13 µM)	0.05 (≈ 0.145 µM)	1.56 (≈ 4.52 µM)	0.05 (≈ 0.145 µM)	12.5 (≈ 36.2 µM)	MIC (E. faecalis IID 682): 0.39 µg/mL (≈ 1.13 µM); MIC (S. pyogenes IID 692): 0.39 µg/mL (≈ 1.13 µM); MIC [14, 20]: 0.05 µg/mL (≈ 0.145 µM); MIC [15]: 0.05 µg/mL (≈ 0.145 µM); MIC [16]: 0.2 µg/mL (≈ 0.579 µM); MIC [17]: 1.56 µg/mL (≈ 4.52 µM); MIC [18]: 6.25 µg/mL (≈ 18.1 µM); MIC (C. perfringens KYA 13123): 0.78 µg/mL (≈ 2.26 µM); MIC [19]: 1.56 µg/mL (≈ 4.52 µM); MIC (S. pneumoniae IID 552): 0.39 µg/mL (≈ 1.13 µM); MIC (P. mirabilis IID 994): 0.05 µg/mL (≈ 0.145 µM)
C[C@@H]1CN(c2c(F)cc3c(=O)c(C(=O)O)cn(C4CC4)c3c2Cl)C[C@H]1N (relative stereo) [Example 17, 7-(trans-3-Amino-4-methyl-1-pyrrolidinyl)-8-chloro-1-cyclopropyl-6-fluoro-1,4-dihydro-4-oxo-3-quinolinecarboxylic acid]	0.1 (≈ 0.263 µM)	0.025 (≈ 0.0658 µM)	0.39 (≈ 1.03 µM)	0.025 (≈ 0.0658 µM)	0.39 (≈ 1.03 µM)	0.05 (≈ 0.132 µM)	0.0063 (≈ 0.0166 µM)	0.05 (≈ 0.132 µM)	0.0125 (≈ 0.0329 µM)	0.0125 (≈ 0.0329 µM)	0.05 (≈ 0.132 µM)	0.025 (≈ 0.0658 µM)	0.025 (≈ 0.0658 µM)	0.05 (≈ 0.132 µM)	0.05 (≈ 0.132 µM)	0.05 (≈ 0.132 µM)	0.025 (≈ 0.0658 µM)	0.05 (≈ 0.132 µM)	0.0125 (≈ 0.0329 µM)	0.78 (≈ 2.05 µM)	MIC (P. cepacia GIFU 518): 0.2 µg/mL (≈ 0.527 µM); MIC [14, 20]: 0.0063 µg/mL (≈ 0.0166 µM); MIC [15]: 0.05 µg/mL (≈ 0.132 µM); MIC [16]: 0.05 µg/mL (≈ 0.132 µM); MIC [17]: 0.1 µg/mL (≈ 0.263 µM); MIC [18]: 0.1 µg/mL (≈ 0.263 µM); MIC (C. perfringens KYA 13123): 0.05 µg/mL (≈ 0.132 µM); MIC [19]: 0.1 µg/mL (≈ 0.263 µM); MIC (P. mirabilis IID 994): 0.025 µg/mL (≈ 0.0658 µM)

Reference: US4753953A, “Pyridonecarboxylic acid derivatives and antibacterial pharmaceutical compositions thereof” (priority 1985, dated 1988)
